Test results: ChEMBL document CHEMBL4813939, “Diterpenoids and Diacetylenes from the Roots of Aralia cordata with Inhibitory Effects on Nitric Oxide Production” (J Nat Prod, 2021)

How the values were obtained:
RAW264.7 [1] = test: Anti-inflammatory activity in mouse RAW264.7 cells assessed as inhibition of LPS-induced NO production preincubated for 1 hr followed by LPS stimulation and measured after 24 hrs by Griess reagent based assay; format: functional, cell-based
RAW264.7 [2] = test: Cytotoxicity against mouse RAW264.7 cells assessed as reduction in cell viability by MTT assay; format: cell-based

SMILES | IC50 (RAW264.7 [1]) [µM] | Activity (RAW264.7 [2])
C=C[C@@]1(C)CCC2=C(C1=O)[C@H](O)C[C@@H]1[C@](C)(C(=O)O)CCC[C@@]21C | 21.7 | Non-Toxic
N=C(N)NN [PIMAGEDINE] | 18.7 | –
C=C1[C@@H]2CC[C@H]3[C@]4(C)CCC[C@@](C)(C(=O)O)[C@H]4CC[C@]3(C2)[C@H]1O | 25.4 | Non-Toxic
C=CCCCCC/C=C\[C@H](O)C#CC#C[C@@H](O)CC [DENDROARBOREOL A] | 40.5 | Non-Toxic
C=C[C@@]1(C)CC=C2[C@@H](CC[C@@H]3[C@](C)(C(=O)O)CCC[C@@]23C)C1=O | 10 | Non-Toxic
C=C[C@@]1(C)CC=C2C(CC[C@@H]3[C@](C)(CO)CCC[C@@]23C)C1 (stereo partly drawn) | 17.6 | Non-Toxic
C[C@@]12CCC[C@@](C)(C(=O)O)[C@H]1CC[C@]13C=C(C=O)[C@H](CC[C@H]12)C3 | 14.2 | Non-Toxic
C=C[C@@]1(C)CCC2=C(CC[C@@H]3[C@](C)(C(=O)O)CCC[C@@]23C)C1=O | 11.5 | Non-Toxic
C=C[C@]1(C)C=C2C(=O)C[C@H]3[C@@](C)(CCC[C@@]3(C)C(=O)O)[C@@H]2CC1 | 66.8 | Non-Toxic
C=C[C@H](O)C#CC#C[C@@H](O)/C=C\CCCCCCC | 5.4 | Non-Toxic
C=C[C@@]1(C)CCC2=C(C1)C(=O)C[C@@H]1[C@](C)(C(=O)O)CCC[C@@]21C | 14.9 | Non-Toxic
C=CCCCCC/C=C\[C@H](O)C#CC#CC(CC)OC(=O)/C=C/c1ccc(O)cc1 (stereo partly drawn) | 1.1 | Non-Toxic
C=C1C[C@@]23CC[C@@H]4[C@](C)(CO)CCC[C@@]4(C)[C@@H]2CC[C@@H]1C3 | 5.4 | Non-Toxic
C=CCCCCC/C=C\[C@@H](C#CC#C[C@@H](O)CC)OC(C)=O | 2.3 | Non-Toxic
C=C/C(C)=C\C[C@@H]1C(=C)CC[C@@H]2[C@](C)(CO)CCC[C@@]12C | 44 | Non-Toxic

The next lines start with results.

IC50 (RAW264.7 [1]) [µM] | SMILES | Activity (RAW264.7 [2])
10.2 | C=C[C@]1(C)C=C2CC[C@@H]3[C@](C)(CO)CCC[C@@]3(C)[C@@H]2CC1 | Non-Toxic
51.1 | C[C@@]12CCC[C@@](C)(C(=O)O)[C@H]1CC[C@]13C=C(C(=O)O)[C@H](CC[C@H]12)C3 | Non-Toxic
69.4 | C[C@@]12CCC[C@@](C)(C(=O)O)[C@H]1CCC1=C[C@@](C)([C@H]3CO3)CC[C@H]12 | Non-Toxic
10.6 | C=C[C@]1(COC(=O)CC(C)C)C=C2CC[C@H]3[C@@](C)(CCC[C@@]3(C)C(=O)O)[C@@H]2CC1 | Non-Toxic
35.1 | CC(C)CC(=O)OC[C@H](O)[C@]1(C)C=C2CC[C@H]3[C@@](C)(CCC[C@]3(C)C(=O)O)[C@@H]2CC1 | Non-Toxic
47.8 | C[C@@]12CCC[C@@](C)(C(=O)O)[C@H]1CC[C@]13C=C(CO)[C@H](CC[C@H]12)C3 | Non-Toxic
28.2 | CC(C)CC(=O)OC[C@@]1(O)C[C@@]23CC[C@H]4[C@@](C)(CCC[C@@]4(C)C(=O)O)[C@@H]2CC[C@@H]1C3 | Non-Toxic
